Source: US6864068B2, “Antifungal proteins” (Syngenta Limited, priority 1995, dated 2005)

What was measured:
Assay type in all cases: cell-based
Fusarium culmorum [1] = experiment: Liquid growth inhibition assay in half strength potato dextrose broth
Method: Yeast cells transformed with either pTG3828, pMFprepro/Rs AFP2 or PMFpre/RsAFP2 were grown in selective SD medium until a saturated culture was obtained. To assess the antifungal activity of proteins secreted by the yeast cells, the supernatant of the yeast cultures was filtered (sterile 0.22 μm filter) and serially diluted in sterile water. Diluted samples (20 μl) were incubated in microtiter plate wells with 80 μl of half strength potato dextrose broth (Difco) containing spores 10^4 spores/ml) of Fusarium culmorum.
Growth of the fungi was monitored by microspectrophotometry as described by Broekaert et al (1990, FEMS Microbiol Lett, 69:55-60). Homogenates of yeast cells were prepared by spinning down 1 ml of a saturated yeast culture, suspending the cells in 200 μl of water, vortexing the cells in the presence of 0.2 g of glass beads (425-600 μm), and clearing the homogenate by centrifugation (1 min, 10000×g). Antifungal activity could only be detected in the culture medium of yeast cells transformed with pMFprepro/RsAFP2, which contained about 2 μg/ml of Rs-AFP2 equivalents. The activity of the homogenate of these cells, as well as that of culture media and cell homogenates of yeast cells transformed with pMFpre/RsAFP2 or pTG3828 transformed yeasts was below the detection limit (about 0.2 μg/ml of Rs-AFP2 equivalents).
The supernatant of 100 ml of a saturated culture of yeast transformed with pMFprepro/RsAFP2 (grown on minimal selective SD medium supplemented with 0.5% w/v of casamino acids) was centrifuged (4000 rpm, 10 min), and filtered (0.45 μm) to remove yeast cells and debris. Tris-HC1 (pH9) was added to the supernatant to a final concentration of 50 mM. The sample was loaded at a flow rate of 2 ml/min on an anion exchange chromatography column (Q-Sepharose Fast Flow, 20 ml bed volume, Pharmacia), on-line connected with a disposable reversed-phase C8 silica column (Bond Elut, 500 mg solid phase, Varian, Harbor City, USA). The antifungal activity was not retained on the Q-Sepharose matrix but bound to the C8 silica matrix. […] The latter eluate was dried in a rotating vacuum concentrator, redissolved in 0.5 ml 15% (v/v) acetonitrile containing 0.1% (v/v) TFA, and was loaded on a reversed-phase C2/C18 silica column (Pep-S, 5 μm beads, 0.4×25 cm, Pharmacia connected to a Waters 600 HPLC station pre-equilibriated with 15% acetonitrile containing 0.1% (v/v) TFA. After loading, the column was rinsed with the same buffer until the absorbance reached background level. The column was subsequently eluted with a 15 minute linear gradient from 15% to 50% acetonitrile containing 0.1% TFA at a flow rate of 1 ml/min. The eluate was monitored for proteins by on-line measurement of the absorbance at 280 nm. […] Twenty μl fractions were tested in a liquid growth inhibition assay: 20 μl samples were incubated in microtiter plate wells with 80 μl of half strength potato dextrose broth (Difco) containing 10^4 spores/ml of F culmorum; growth of the fungi was monitored by microspectrophotometry as described by Broekaert et al (1990, FEMS Microbiol Lett, 69: 55-60).
The specific antifungal activity of RPC-purified peak A material, as well as that of plant-derivable Rs-AFP2, was determined by measuring the percentage growth inhibition of F culmorum caused by serial dilutions of the protein samples. […]

F culmorum [2] = experiment: Specific antifungal activity of Rs-AFP2 isoforms in SMF− and SMF+ media; design: IC50 SMF− / IC50 SMF+: unit not given here; conditions: for RELATIVE SPECIFIC ACTIVITY (%) IN MEDIUM SMF+ / RELATIVE SPECIFIC ACTIVITY (%) IN MEDIUM SMF−: 1/IC50 of mutant divided by that of yRs-AFP2 x 100, 48 hour incubation, preliminary tests; for RELATIVE SPECIFIC ACTIVITY (%) IN MEDIUM SMF+: SMF with 1 mM CaCl2 and 50 mM KCl; for RELATIVE SPECIFIC ACTIVITY (%) IN MEDIUM SMF−: low ionic strength medium; for IC50 SMF+ / IC50 SMF−: 72 hours growth, triplicate; for IC50 SMF+: high salt medium (1 mM CaCl2, 50 mM KCl)
Method: For each isoform, two independent purifications were carried out and the antifungal activity was determined in duplicate using F culmorum as a test fungus in two different media: a low ionic strength medium called SMF-(Terras et al, 1992, J Biol Chem, 267:15301-15309) and the same medium supplemented with 1 mM CaCl2 and 50 mM KCl called SMF+. The presence of salts in the test medium, especially salts with divalent cations, reduces the specific activity of Rs-AFP2. Seed-purified as well as yeast-expressed wild type Rs-AFP2 served as a control in the assays.
The relative specific activity is expressed as the specific activity of the mutant divided by the specific activity of yRs-AFP2 and multiplied by 100. […] The specific activity was measured in medium SMF−and SMF+.
Deviations are given as standard error of the mean (sem) based on the triplicate experiments. In SMF−, the medium without added salts, most of the derivatives show no decrease or only a minor decrease in antifungal activity, while in SMF+, the medium with added salts, there is a significant decrease in antifungal activity for several Rs-AFP2 isoforms.

Botrytis cinerea = experiment: Antifungal activity in three media differing in ionic strength (Table 3)
Method: (§1) The antifungal activity of the G9R and V39R Rs-AFP2 isoforms was also assessed on a set of seven different phytopathogenic fungi in three media differing in ionic strength: SMF−, SMF plus 1 mM CaCl2 and 50 mM KCl, and SMF plus 5 mM CaCl2 and 50 mM KCl. The fungi tested were: Alternaria brassicicola, Ascochyta pisi, Botrytis cinerea, Fusarium culmorum, Nectria haematococca, Phoma betae and Verticillium dahliae.

Fusarium culmorum [3] = experiment: as above
Method: as §1

Phoma betae = experiment: as above; conditions: 72 hours
Method: as §1

Verticillium dahliae = experiment: as above
Method: as §1

Nectria haematococca = experiment: as above
Method: as §1

Alternaria brassicicola = experiment: as above
Method: as §1

Ascochyta pisi = experiment: as above
Method: as §1

F culmorum [4] = experiment: Growth inhibition in SMF with varying CaCl2 or KCl (FIG. 7)
Method: Their antifungal activity was determined in SMF with increasing Ca^2+ or K^+ concentration and compared with that of plant-derivable wild type Rs-AFP2 (isolated from seed) as well as yeast purified Rs-AFP2. FIG. 7 is a graph of the percentage growth inhibition of F culmorum caused by 10 μg/ml of yeast-purified Rs-AFP2 (SEQ ID NO: 20) (open circles), seed-purified Rs-AFP2 (SEQ ID NO: 77) (closed circles), Rs-AFP2/G9R (SEQ ID NO: 38) (squares) and Rs-AFP2/V39R (SEQ ID NO: 43) (triangles) in a medium consisting of SMF with varying concentrations of CaCl2 (panel A) and KCl (panel B).

[5] = SMF plus 1 mM CaCl2 and 50 mM KCl

## yRs-AFP2: yeast-expressed wild-type Rs-AFP2 (QKLCQRPSGTWSGVCGNNNACKNQCIRLEKARHGSCNYVFPAHKCICYFPC; listed as Raphanus sativus) [reference compound]
Fusarium culmorum [1]; F culmorum, from dose-response curves of serial dilutions
  IC50 (concentration required for 50% growth inhibition): about 3 μg/ml
Fusarium culmorum [1]; F culmorum, induction of multiple branches near the tips
  type of inhibition (hyphal morphology): characteristic morphological distortion of the fungal hyphae
F culmorum [2]
  RELATIVE SPECIFIC ACTIVITY (%) IN MEDIUM SMF+: 100%
  RELATIVE SPECIFIC ACTIVITY (%) IN MEDIUM SMF−: 100%
  IC50 SMF+: 8.5
F culmorum [2]; low salt medium
  IC50 SMF−: 2.7

## SIα2: Sorghum bicolor α-amylase inhibitor 2, partially homologous to Rs-AFP2
Fusarium culmorum [1]; assayed as described in Example 2
  antifungal activity: does not exhibit antifungal activity

## yRs-AFP2/G9R: yeast-expressed Rs-AFP2 isoform, position 9 glycine to arginine (QKLCQRPSRTWSGVCGNNNACKNQCIRLEKARHGSCNYVFPAHKCICYFPC; listed as Raphanus sativus)
Botrytis cinerea; 72 hours
  IC50 VALUES, B cinerea, SMF + 1 mM CaCl2/50 mM KCl: >50 µg/mL
  IC50 VALUES, B cinerea, SMF + 5 mM CaCl2/50 mM KCl: >100 µg/mL
Botrytis cinerea; SMF−, 72 hours
  IC50 VALUES, B cinerea, SMF: 1.9 µg/mL
Botrytis cinerea; Table 3 data
  activity against B cinerea compared with Rs-AFP2, in words: comparable to the activity of Rs-AFP2
Fusarium culmorum [3]; 96 hours
  IC50 VALUES, F culmorum, SMF + 1 mM CaCl2/50 mM KCl: 1.5 µg/mL
  IC50 VALUES, F culmorum, SMF + 5 mM CaCl2/50 mM KCl: 7.2 µg/mL
Fusarium culmorum [3]; [5]
  fold activity relative to Rs-AFP2 against F culmorum: approximately three-fold more active
Fusarium culmorum [3]; SMF−, 96 hours
  IC50 VALUES, F culmorum, SMF: 2.2 µg/mL
Phoma betae
  IC50 VALUES, P betae, SMF + 1 mM CaCl2/50 mM KCl: 2.50 µg/mL
  IC50 VALUES, P betae, SMF + 5 mM CaCl2/50 mM KCl: >100 µg/mL
Phoma betae; SMF−
  IC50 VALUES, P betae, SMF: 2.0 µg/mL
Verticillium dahliae; 96 hours
  IC50 VALUES, V dahliae, SMF + 1 mM CaCl2/50 mM KCl: 4.0 µg/mL
  IC50 VALUES, V dahliae, SMF + 5 mM CaCl2/50 mM KCl: 17.0 µg/mL
Verticillium dahliae; [5]
  fold activity relative to Rs-AFP2 against V dahliae: approximately three-fold more active
Verticillium dahliae; SMF−, 96 hours
  IC50 VALUES, V dahliae, SMF: 0.5 µg/mL
Nectria haematococca; 72 hours
  IC50 VALUES, N haematococca, SMF + 1 mM CaCl2/50 mM KCl: 16.0 µg/mL
  IC50 VALUES, N haematococca, SMF + 5 mM CaCl2/50 mM KCl: 100 µg/mL
Nectria haematococca; [5]
  fold activity relative to Rs-AFP2 against N haematococca: approximately three-fold more active
Nectria haematococca; SMF−, 72 hours
  IC50 VALUES, N haematococca, SMF: 2.0 µg/mL
Alternaria brassicicola; 72 hours
  IC50 VALUES, A brassicicola, SMF + 1 mM CaCl2/50 mM KCl: >50 µg/mL
  IC50 VALUES, A brassicicola, SMF + 5 mM CaCl2/50 mM KCl: >100 µg/mL
Alternaria brassicicola; SMF−, 72 hours
  IC50 VALUES, A brassicicola, SMF: 2.6 µg/mL
Alternaria brassicicola; Table 3 data
  activity against A brassicola compared with Rs-AFP2, in words: comparable to the activity of Rs-AFP2
Ascochyta pisi; 72 hours
  IC50 VALUES, A pisi, SMF + 1 mM CaCl2/50 mM KCl: >50 µg/mL
  IC50 VALUES, A pisi, SMF + 5 mM CaCl2/50 mM KCl: >100 µg/mL
Ascochyta pisi; SMF−, 72 hours
  IC50 VALUES, A pisi, SMF: 1.6 µg/mL
Ascochyta pisi; Table 3 data
  activity against A pisi compared with Rs-AFP2, in words: comparable to the activity of Rs-AFP2
F culmorum [4]; FIG. 7
  reduction of antifungal activity by cations, compared with wild-type Rs-AFP2: less reduced by the presence of cations
F culmorum [4]; SMF with 100 mM KCl, FIG. 7, 10 μg/ml
  activity in the presence of 100 mM KCl: fully inhibitory
F culmorum [4]; protein 10 μg/ml, SMF with 5mM CaCl2
  growth inhibition in the presence of 5mM CaCl2: complete inhibition
F culmorum [2]
  RELATIVE SPECIFIC ACTIVITY (%) IN MEDIUM SMF+: 285%
  RELATIVE SPECIFIC ACTIVITY (%) IN MEDIUM SMF−: 116%
  IC50 SMF+: 3.3
F culmorum [2]; low salt medium
  IC50 SMF−: 3.0
F culmorum [2]; SMF+
  antifungal activity in SMF+ relative to wild-type Rs-AFP2: approximately two-fold higher
F culmorum [2]; Table 1 tests
  antifungal activity compared with yRs-AFP2 in high salt (SMF+), in words: approximately three times more active than yRs-AFP2
  antifungal activity compared with yRs-AFP2 in low salt (SMF−), in words: not so significantly different in low salt
F culmorum [2]; Table 2 tests, high salt medium
  effect of substitution on antifungal activity in SMF+, in words: increased antifungal activity
F culmorum [2]; Table 2 tests, low salt medium
  effect of substitution on antifungal activity in SMF−, in words: little effect on the antifungal activity
F culmorum [2]; medium SMF+, Rs-AFP2 set at 100
  relative specific antifungal activity (1/IC50), FIG. 6, in words: particularly active
